Molecular target: T1, recombinant human mPGES-1 (Homo sapiens, UniProt O14684)
T1 construct: made in house; host or cells: Rosetta E. coli (microsomal/membrane fraction)
T1 sequence (O14684 1-152): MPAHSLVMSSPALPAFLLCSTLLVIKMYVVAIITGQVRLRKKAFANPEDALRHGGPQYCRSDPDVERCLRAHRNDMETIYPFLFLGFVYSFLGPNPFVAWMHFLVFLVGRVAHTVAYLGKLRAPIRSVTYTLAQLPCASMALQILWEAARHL
Test: mPGES-1 inhibition test (microsomes, PGH2 substrate, HTRF detection of PGE2)
Type: biochemical
Conditions: inhibition of mPGES-1 at 1 μM (marked in cell)
Outline: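 First, inhibitor is incubated with microsomal enzyme from Rosetta E. coli in KPi pH 7.4 containing 2.5 mM GSH for 25 minutes at room temperature. Next, PGH2 is added and stopped after one minute with FeCl2 stop solution. Finally, diluted samples undergo HTRF PGE2 quantification.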

inhibition at 1 µM [%] | Compound
99 | Cc1ccc(Cl)c(Nc2nc3cc(C(=O)N[C@H]4CC[C@H](C(F)(F)F)CC4)c(F)cc3n2C)c1F [Example 629, 2-(6-Chloro-2-fluoro-3-methyl-phenylamino)-6-fluoro-N-(trans-4-trifluoromethyl-cyclohex-1-yl)-1-methyl-1H-benzimidazole-5-carboxamide]

Same assay, conditions: inhibition of mPGES-1 at 10 μM

Compound | inhibition at 10 µM [%]
Cc1cccc(C)c1Nc1nc2cc(C(=O)Nc3ccc(Br)cc3)ccc2n1C [compound 318] | 100
O=C(NC1Cc2ccccc2C1)c1cc2nc(Nc3c(Cl)cccc3Cl)[nH]c2cc1Cl [Example 58, 2-(2,6-Dichloro-phenylamino)-6-chloro-1H-benzimidazol-5-carboxylic acid indan-2-yl-amide] | 90
Cn1c(Nc2c(Cl)cccc2Cl)nc2cc(C(=O)Nc3cc(C(F)(F)F)ccn3)c(F)cc21 [Example 130, 2-(2,6-Dichloro-phenylamino)-6-fluoro-1-methyl-1H-benzimidazole-5-carboxylic acid (4-trifluoromethyl-pyridin-2-yl)-amide] | 93
O=C(Nc1ncccc1Cl)c1ccc2[nH]c(Nc3c(Cl)cccc3Cl)nc2c1 [Example 186, 2-(2,6-Dichloro-phenylamino)-1H-benzimidazole-5-carboxylic acid (3-chloro-pyridin-2-yl)-amide] | 91
CS(=O)(=O)NCCn1c(Nc2c(Cl)cccc2Cl)nc2cc(C(=O)Nc3cc(Cl)ccn3)ccc21 [Example 205, 2-(2,6-Dichloro-phenylamino)-1-(2-methanesulfonylamino-ethyl)-1H-benzimidazole-5-carboxylic acid (4-chloro-pyridin-2-yl)-amide] | 97
O=C(Nc1ccc(Br)cc1)c1ccc2[nH]c(Nc3cccc(Cl)c3Cl)nc2c1 [Example 108, 2-(2,3-Dichloro-phenylamino)-1H-benzimidazole-5-carboxylic acid (4-bromo-phenyl)-amide] | 100
O=C(NC1CCC(F)(F)CC1)c1ccc2[nH]c(Nc3c(Cl)cccc3Cl)nc2c1 [Example 225, 2-(2,6-Dichloro-phenylamino)-1H-benzimidazole-5-carboxylic acid (4,4-difluoro-cyclohexyl)-amide] | 80
Cc1nc(NC(=O)c2ccc3[nH]c(Nc4c(Cl)cccc4Cl)nc3c2)cc2c1CCCC2 [Example 132, 2-(2,6-Dichloro-phenylamino)-1H-benzimidazole-5-carboxylic acid (1-methyl-5,6,7,8-tetrahydro-isoquinolin-3-yl)-amide] | 97
CC(C)Oc1cc2[nH]c(Nc3c(Cl)ccc(Cl)c3F)nc2cc1C(=O)NC1CCC2(CC1)CC2 [Example 615, 2-(3,6-Dichloro-2-fluoro-phenylamino)-6-isopropoxy-N-(spiro[2.5]oct-6-yl)-1H-benzimidazole-5-carboxamide] | 96
O=C(Nc1cc(Cl)ccn1)c1ccc2c(c1)nc(Nc1c(Cl)cccc1Cl)n2CC(=O)N1CCOCC1 [Example 275, 2-(2,6-Dichloro-phenylamino)-1-(2-morpholin-4-yl-2-oxo-ethyl)-1H-benzimidazole-5-carboxylic acid (4-chloro-pyridin-2-yl)-amide] | 96
Cc1cc(NC(=O)c2ccc3[nH]c(Nc4c(Cl)cccc4Cl)nc3c2)ncc1Br [Example 182, 2-(2,6-Dichloro-phenylamino)-1H-benzimidazole-5-carboxylic acid (5-bromo-4-methyl-pyridin-2-yl)-amide] | 99
Cn1c(Nc2ccc(Cl)cc2C(F)(F)F)nc2cc(C(=O)Nc3ccc(Br)cc3)ccc21 [Example 433, N-(4-Bromophenyl)-2-(4-chloro-2-trifluoromethyl-phenylamino)-1-methyl-1H-benzimidazole-5-carboxamide] | 99
Cn1c(Nc2c(Cl)cccc2Cl)nc2cc(C(=O)NC3CCCCC3)cc(Br)c21 [Example 326, 7-Bromo-2-(2,6-dichloro-phenylamino)-1-methyl-1H-benzimidazole-5-carboxylic acid cyclohexylamide] | 96
O=C(NC1CCC2(CC1)CC2)c1ccc2[nH]c(Nc3c(F)cccc3Cl)nc2c1 [Example 488, 2-(2-Chloro-6-fluorophenylamino)-N-(spiro[2.5]octan-6-yl)-1H-benzimidazole-5-carboxamide] | 98
Cn1c(Nc2c(Cl)cccc2Cl)nc2cc(C(=O)NC3(C)CCCCC3)c(F)cc21 [Example 164, 2-(2,6-Dichloro-phenylamino)-6-fluoro-1-methyl-1H-benzimidazole-5-carboxylic acid (1-methyl-cyclohexyl)-amide] | 100

Further lines, results first:

inhibition at 10 µM [%] | Compound
75 | Cn1c(CNC(=O)c2cc3nc(Nc4c(Cl)cccc4Cl)n(C)c3cc2F)nc2ccccc21 [Example 563, 2-(2,6-Dichlorophenylamino)-6-fluoro-1-methyl-N-((1-methyl-1H-benzo[d]imidazol-2-yl)methyl)-1H-benzimidazole-5-carboxamide]
100 | CCCC[C@@H](C)NC(=O)c1cc2nc(Nc3c(Cl)cccc3Cl)n(C)c2cc1F [Example 416, (R)-2-(2,6-Dichlorophenylamino)-6-fluoro-N-(hexan-2-yl)-1-methyl-1H-benzimidazole-5-carboxamide]
100 | CC(C)[C@H]1CC[C@H](NC(=O)c2cc3nc(Nc4c(F)cccc4Cl)n(C)c3cc2F)CC1 [Example 368]
100 | CC(C)Oc1cc2[nH]c(Nc3c(Cl)ccc(Cl)c3F)nc2cc1C(=O)Nc1cccc(Cl)c1 [Example 614, 2-(3,6-Dichloro-2-fluoro-phenylamino)-N-(3-chloro-phenyl)-6-isopropoxy-1H-benzimidazole-5-carboxamide]
99 | O=C(Nc1ccc(Br)cc1)c1ccc2[nH]c(Nc3c(Cl)cc(Cl)cc3Cl)nc2c1 [Example 107, 2-(2,4,6-Trichloro-phenylamino)-1H-benzimidazole-5-carboxylic acid (4-bromo-phenyl)-amide]
96 | Cn1c(Nc2c(Cl)cccc2Cl)nc2cc(C(=O)NCc3ncccc3C(F)(F)F)ccc21 [Example 244, 2-(2,6-Dichloro-phenylamino)-1-methyl-1H-benzimidazole-5-carboxylic acid (3-trifluoromethyl-pyridin-2-ylmethyl)-amide]
100 | Cn1c(Nc2c(Cl)cccc2Cl)nc2cc(C(=O)NC3CCC(F)(F)CC3)c(F)cc21 [Example 156, 2-(2,6-Dichloro-phenylamino)-6-fluoro-1-methyl-1H-benzimidazole-5-carboxylic acid (4,4-difluoro-cyclohexyl)-amide]
92 | O=C(Nc1nc2ccccc2[nH]1)c1ccc2[nH]c(Nc3c(Cl)cccc3Cl)nc2c1 [Example 80, 2-(2,6-Dichloro-phenylamino)-1H-benzimidazole-5-carboxylic acid (benzimidazol-2-yl)-amide]
70 | Cn1c(Nc2c(Cl)cccc2Cl)nc2cc(C(=O)NCc3cn4cc(Cl)ccc4n3)c(F)cc21 [Example 564, N-((6-Chloroimidazo[1,2-a]pyridin-2-yl)methyl)-2-(2,6-dichlorophenylamino)-6-fluoro-1-methyl-1H-benzimidazole-5-carboxamide]
87 | CC(C)Oc1cc2[nH]c(Nc3c(Cl)ccc(Cl)c3F)nc2cc1C(=O)Nc1ccc(Br)cc1 [Example 610, 2-(3,6-Dichloro-2-fluoro-phenylamino)-N-(4-bromo-phenyl)-6-isopropoxy-1H-benzimidazole-5-carboxamide]
89 | Cn1c(Nc2c(Cl)cccc2Cl)nc2cc(C(=O)NCc3ncccc3F)c(F)cc21 [Example 536, 2-(2,6-Dichlorophenylamino)-6-fluoro-N-((3-fluoropyridin-2-yl)methyl)-1-methyl-1H-benzimidazole-5-carboxamide]
100 | Cn1c(Nc2c(Cl)cccc2Cl)nc2cc(C(=O)NCc3ccc(C(F)(F)F)cn3)ccc21 [Example 246, 2-(2,6-Dichloro-phenylamino)-1-methyl-1H-benzimidazole-5-carboxylic acid (5-trifluoromethyl-pyridin-2-ylmethyl)-amide]
96 | Cn1c(Nc2c(F)cccc2Cl)nc2cc(C(=O)NCCC3CC3)c(F)cc21 [Example 502, 2-(2-Chloro-6-fluorophenylamino)-N-(2-cyclopropylethyl)-6-fluoro-1-methyl-1H-benzimidazole-5-carboxamide]
100 | Cc1cc(NC(=O)c2ccc3c(c2)nc(Nc2c(Cl)cccc2Cl)n3C)ncc1Cl [Example 202, 2-(2,6-Dichloro-phenylamino)-1-methyl-1H-benzimidazole-5-carboxylic acid (5-chloro-4-methyl-pyridin-2-yl)-amide]
94 | O=C(NC1CCC(F)(F)CC1)c1ccc2nc(Nc3c(Cl)cccc3Cl)[nH]c2c1 [Example 147, 2-(2,6-Dichloro-phenylamino)-3H-benzimidazole-5-carboxylic acid (4,4-difluoro-cyclohexyl)-amide]
68 | Cn1c(Nc2c(Cl)cccc2Cl)nc2cc(C(=O)NC3CCOCC3)ccc21 [Example 252, 2-(2,6-Dichloro-phenylamino)-1-methyl-1H-benzimidazole-5-carboxylic acid (tetrahydro-pyran-4-yl)-amide]
91 | O=C(NC1CCCC(C(F)(F)F)C1)c1ccc2[nH]c(Nc3c(Cl)cccc3Cl)nc2c1 (stereo not drawn) [Example 229, 2-(2,6-Dichloro-phenylamino)-1H-benzimidazole-5-carboxylic acid (3-trifluoromethyl-cyclohexyl)-amide]

Source: patent publication US8916599B2, “1H-benz imidazole-5-carboxamides as anti-inflammatory agents” (Orexo AB, priority 2008, dated 2014)
